According to ChEMBL document CHEMBL4699433, “Rational design, synthesis and testing of novel tricyclic topoisomerase inhibitors for the treatment of bacterial infections part 2” (RSC Med Chem, 2020):
≈ marks a conversion by molar mass, not a printed value.

Columns and labels:
[1] = system: Staphylococcus aureus; assay: Antibacterial activity against wild type methicillin-sensitive Staphylococcus aureus ATCC 29213 assessed as reduction in bacterial growth by CLSI based broth microdilution method; assay type: functional
[2] = system: Streptococcus pneumoniae; assay: Antibacterial activity against Streptococcus pneumoniae ATCC 49619 assessed as reduction in bacterial growth by CLSI based broth microdilution method; assay type: functional
[3] = system: Escherichia coli; assay: Antibacterial activity against Escherichia coli ATCC 25922 assessed as reduction in bacterial growth by CLSI based broth microdilution method; assay type: functional
[4] = system: Haemophilus influenzae; assay: Antibacterial activity against Haemophilus influenzae ATCC 49247 assessed as reduction in bacterial growth by CLSI based broth microdilution method; assay type: functional
[5] = Thermodynamic solubility of the compound; assay type: physicochemical; settings: read-out: Therm_solubility

MIC [1]	MIC [2]	MIC [3]	MIC [4]	solubility thermodynamic [5]	Compound
0.12 µg/mL (≈ 0.307 µM)	0.12 µg/mL (≈ 0.307 µM)	0.5 µg/mL (≈ 1.28 µM)	1 µg/mL (≈ 2.56 µM)	601 µg/mL (≈ 1540 µM)	Cc1nc2c(=O)n(C3CC3)c3c(Cl)c(N4CC[C@H](CN)C4)c(F)cc3c2o1
4 µg/mL (≈ 9.88 µM)	4 µg/mL (≈ 9.88 µM)	4 µg/mL (≈ 9.88 µM)	8 µg/mL (≈ 19.8 µM)		Cc1nc2c(=O)n(C3CC3)c3c(Cl)c(N4CCC(N(C)C)C4)c(F)cc3c2o1 (stereo unspecified)
0.12 µg/mL (≈ 0.307 µM)	0.12 µg/mL (≈ 0.307 µM)	1 µg/mL (≈ 2.56 µM)		950 µg/mL (≈ 2430 µM)	Cc1nc2c(=O)n(C3CC3)c3c(Cl)c(N4CC[C@@H](CN)C4)c(F)cc3c2o1
1 µg/mL (≈ 2.81 µM)	1 µg/mL (≈ 2.81 µM)	2 µg/mL (≈ 5.61 µM)	1 µg/mL (≈ 2.81 µM)	1400 µg/mL (≈ 3940 µM)	Cc1nc2c(=O)n(C3CC3)c3cc(N4CCC(N)CC4)c(F)cc3c2o1
1 µg/mL (≈ 2.81 µM)	0.5 µg/mL (≈ 1.4 µM)	2 µg/mL (≈ 5.61 µM)	8 µg/mL (≈ 22.4 µM)	1400 µg/mL (≈ 3940 µM)	Cc1nc2c(=O)n(C3CC3)c3cc(N4CC[C@H](CN)C4)c(F)cc3c2o1
8 µg/mL (≈ 19.8 µM)	16 µg/mL (≈ 39.5 µM)	4 µg/mL (≈ 9.88 µM)	8 µg/mL (≈ 19.8 µM)	543 µg/mL (≈ 1340 µM)	Cc1nc2c(=O)n(C3CC3)c3c(Cl)c(N4C[C@@H](C)N[C@@H](C)C4)c(F)cc3c2o1
0.5 µg/mL (≈ 1.4 µM)	0.5 µg/mL (≈ 1.4 µM)	2 µg/mL (≈ 5.61 µM)	8 µg/mL (≈ 22.4 µM)		Cc1nc2c(=O)n(C3CC3)c3cc(N4CCC(CN)C4)c(F)cc3c2o1 (stereo unspecified)
1 µg/mL (≈ 2.7 µM)	1 µg/mL (≈ 2.7 µM)	4 µg/mL (≈ 10.8 µM)	4 µg/mL (≈ 10.8 µM)	1350 µg/mL (≈ 3640 µM)	Cc1nc2c(=O)n(C3CC3)c3cc(N4CCC(C(C)N)C4)c(F)cc3c2o1 (stereo unspecified)
0.25 µg/mL (≈ 0.617 µM)	0.25 µg/mL (≈ 0.617 µM)	2 µg/mL (≈ 4.94 µM)	1 µg/mL (≈ 2.47 µM)		CNC[C@H]1CCN(c2c(F)cc3c4oc(C)nc4c(=O)n(C4CC4)c3c2Cl)C1
2 µg/mL (≈ 5.2 µM)	2 µg/mL (≈ 5.2 µM)	8 µg/mL (≈ 20.8 µM)	16 µg/mL (≈ 41.6 µM)	1350 µg/mL (≈ 3520 µM)	Cc1nc2c(=O)n(C3CC3)c3cc(N4CC[C@@H](C(C)(C)N)C4)c(F)cc3c2o1
